# Test results as given in the NIST ThermoML archive (doi:10.1016/j.tca.2012.01.013).
# ± gives the expanded uncertainty stated by the source.
# Assay: xn = mol fraction of the nth substance listed
# Settings: 101 kPa, Liquid, Vibrating tube method
compound,measurement,setting,value
"COC(=O)c1ccccc1C(=O)OC [dimethyl 1,2-benzenedicarboxylate] + CCC(C)=O",mass density,"288.15 K, x1 = 0.1002",878.718 ± 0.18 kg/m3
same,mass density,"288.15 K, x1 = 0.2001",936.554 ± 0.16 kg/m3
same,mass density,"288.15 K, x1 = 0.3002",986.029 ± 0.15 kg/m3
same,mass density,"288.15 K, x1 = 0.3997",1028.42 ± 0.17 kg/m3
same,mass density,"288.15 K, x1 = 0.4982",1064.97 ± 0.2 kg/m3
same,mass density,"288.15 K, x1 = 0.6001",1098.15 ± 0.23 kg/m3
same,mass density,"288.15 K, x1 = 0.6993",1126.71 ± 0.27 kg/m3
same,mass density,"288.15 K, x1 = 0.7993",1152.38 ± 0.31 kg/m3
same,mass density,"288.15 K, x1 = 0.9002",1175.59 ± 0.35 kg/m3
same,mass density,"288.15 K, x1 = 1",1196.26 ± 0.39 kg/m3
same,mass density,"293.15 K, x1 = 0.1002",873.583 ± 0.19 kg/m3
same,mass density,"293.15 K, x1 = 0.2001",931.496 ± 0.17 kg/m3
same,mass density,"293.15 K, x1 = 0.3002",981.04 ± 0.16 kg/m3
same,mass density,"293.15 K, x1 = 0.3997",1023.49 ± 0.17 kg/m3
same,mass density,"293.15 K, x1 = 0.4982",1060.1 ± 0.2 kg/m3
same,mass density,"293.15 K, x1 = 0.6001",1093.33 ± 0.23 kg/m3
same,mass density,"293.15 K, x1 = 0.6993",1121.93 ± 0.27 kg/m3
same,mass density,"293.15 K, x1 = 0.7993",1147.64 ± 0.31 kg/m3
same,mass density,"293.15 K, x1 = 0.9002",1170.9 ± 0.35 kg/m3
same,mass density,"293.15 K, x1 = 1",1191.59 ± 0.39 kg/m3
same,mass density,"298.15 K, x1 = 0.1002",868.432 ± 0.19 kg/m3
same,mass density,"298.15 K, x1 = 0.2001",926.423 ± 0.17 kg/m3
same,mass density,"298.15 K, x1 = 0.3002",976.038 ± 0.16 kg/m3
same,mass density,"298.15 K, x1 = 0.3997",1018.55 ± 0.17 kg/m3
same,mass density,"298.15 K, x1 = 0.4982",1055.22 ± 0.2 kg/m3
same,mass density,"298.15 K, x1 = 0.6001",1088.5 ± 0.23 kg/m3
same,mass density,"298.15 K, x1 = 0.6993",1117.16 ± 0.27 kg/m3
same,mass density,"298.15 K, x1 = 0.7993",1142.92 ± 0.3 kg/m3
same,mass density,"298.15 K, x1 = 0.9002",1166.21 ± 0.35 kg/m3
same,mass density,"298.15 K, x1 = 1",1186.93 ± 0.39 kg/m3
same,mass density,"303.15 K, x1 = 0.1002",863.253 ± 0.19 kg/m3
same,mass density,"303.15 K, x1 = 0.2001",921.334 ± 0.17 kg/m3
same,mass density,"303.15 K, x1 = 0.3002",971.032 ± 0.16 kg/m3
same,mass density,"303.15 K, x1 = 0.3997",1013.62 ± 0.17 kg/m3
same,mass density,"303.15 K, x1 = 0.4982",1050.34 ± 0.2 kg/m3
same,mass density,"303.15 K, x1 = 0.6001",1083.68 ± 0.23 kg/m3
same,mass density,"303.15 K, x1 = 0.6993",1112.38 ± 0.26 kg/m3
same,mass density,"303.15 K, x1 = 0.7993",1138.18 ± 0.3 kg/m3
same,mass density,"303.15 K, x1 = 0.9002",1161.51 ± 0.34 kg/m3
same,mass density,"303.15 K, x1 = 1",1182.28 ± 0.38 kg/m3
same,mass density,"308.15 K, x1 = 0.1002",858.059 ± 0.19 kg/m3
same,mass density,"308.15 K, x1 = 0.2001",916.232 ± 0.17 kg/m3
same,mass density,"308.15 K, x1 = 0.3002",966.01 ± 0.16 kg/m3
same,mass density,"308.15 K, x1 = 0.3997",1008.66 ± 0.17 kg/m3
same,mass density,"308.15 K, x1 = 0.4982",1045.45 ± 0.19 kg/m3
same,mass density,"308.15 K, x1 = 0.6001",1078.84 ± 0.23 kg/m3
same,mass density,"308.15 K, x1 = 0.6993",1107.6 ± 0.26 kg/m3
same,mass density,"308.15 K, x1 = 0.7993",1133.45 ± 0.3 kg/m3
same,mass density,"308.15 K, x1 = 0.9002",1156.83 ± 0.34 kg/m3
same,mass density,"308.15 K, x1 = 1",1177.62 ± 0.38 kg/m3
same,mass density,"313.15 K, x1 = 0.1002",852.838 ± 0.19 kg/m3
same,mass density,"313.15 K, x1 = 0.2001",911.111 ± 0.17 kg/m3
same,mass density,"313.15 K, x1 = 0.3002",960.975 ± 0.16 kg/m3
same,mass density,"313.15 K, x1 = 0.3997",1003.7 ± 0.16 kg/m3
same,mass density,"313.15 K, x1 = 0.4982",1040.55 ± 0.18 kg/m3
same,mass density,"313.15 K, x1 = 0.6001",1074.01 ± 0.22 kg/m3
same,mass density,"313.15 K, x1 = 0.6993",1102.82 ± 0.25 kg/m3
same,mass density,"313.15 K, x1 = 0.7993",1128.73 ± 0.29 kg/m3
same,mass density,"313.15 K, x1 = 0.9002",1152.15 ± 0.33 kg/m3
same,mass density,"313.15 K, x1 = 1",1172.97 ± 0.37 kg/m3
same,mass density,"318.15 K, x1 = 0.1002",847.588 ± 0.19 kg/m3
same,mass density,"318.15 K, x1 = 0.2001",905.966 ± 0.17 kg/m3
same,mass density,"318.15 K, x1 = 0.3002",955.922 ± 0.16 kg/m3
same,mass density,"318.15 K, x1 = 0.3997",998.73 ± 0.16 kg/m3
same,mass density,"318.15 K, x1 = 0.4982",1035.65 ± 0.18 kg/m3
same,mass density,"318.15 K, x1 = 0.6001",1069.17 ± 0.21 kg/m3
same,mass density,"318.15 K, x1 = 0.6993",1098.05 ± 0.25 kg/m3
same,mass density,"318.15 K, x1 = 0.7993",1124.01 ± 0.29 kg/m3
same,mass density,"318.15 K, x1 = 0.9002",1147.47 ± 0.33 kg/m3
same,mass density,"318.15 K, x1 = 1",1168.32 ± 0.37 kg/m3
same,mass density,"323.15 K, x1 = 0.1002",842.312 ± 0.21 kg/m3
same,mass density,"323.15 K, x1 = 0.2001",900.811 ± 0.19 kg/m3
same,mass density,"323.15 K, x1 = 0.3002",950.87 ± 0.18 kg/m3
same,mass density,"323.15 K, x1 = 0.3997",993.761 ± 0.17 kg/m3
same,mass density,"323.15 K, x1 = 0.4982",1030.75 ± 0.19 kg/m3
same,mass density,"323.15 K, x1 = 0.6001",1064.33 ± 0.22 kg/m3
same,mass density,"323.15 K, x1 = 0.6993",1093.26 ± 0.25 kg/m3
same,mass density,"323.15 K, x1 = 0.7993",1119.27 ± 0.29 kg/m3
same,mass density,"323.15 K, x1 = 0.9002",1140.78 ± 3 kg/m3
same,mass density,"323.15 K, x1 = 1",1163.67 ± 0.37 kg/m3
